Measured values taken from PubChem BioAssay AID1845215 (Molecular Pharmacology Branch, DTP, NCI, 2023).
Values joined by “and” are separate entries in the source; they are usually repeats but may differ in a detail not shown here. Equal values may be shown once.

Test system: SW 1271 complex tumor spheroid viability
Assay: Anticancer human tumor SW 1271 cell line growth inhibition;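 also: spheroids exposed to agents for seven days before readout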;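 as to viability, T/C: percent of DMSO vehicle control luminescence so 100% = vehicle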
Details: for viability, T/C: stronger effect = lower value; active = viability on the fitted dose curve at most 10% of control; inactive = the rest
Outline: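 Complex spheroids of malignant cells with endothelial cells and mesenchymal stem cells; agents alone or combined, from near clinical Cmax (or 10 microM if unknown) down in half-log steps, 0.25% DMSO final.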

[1] = curve of first compound, second compound 1 µM
[2] = curve of first compound, second compound 3.16 µM
[3] = curve of first compound, second compound 10 µM
[4] = curve of first compound, second compound 31.6 µM
[5] = curve of first compound, second compound 100 µM
[6] = second compound 1 µM, first compound 0.0316 µM
[7] = second compound 1 µM, first compound 0.1 µM
[8] = second compound 1 µM, first compound 0.316 µM
[9] = second compound 1 µM, first compound 1 µM
[10] = second compound 1 µM, first compound 3.16 µM
[11] = second compound 1 µM, first compound 10 µM
[12] = second compound 3.16 µM, first compound 0.0316 µM
[13] = second compound 3.16 µM, first compound 0.1 µM
[14] = second compound 3.16 µM, first compound 0.316 µM
[15] = second compound 3.16 µM, first compound 1 µM
[16] = second compound 3.16 µM, first compound 3.16 µM
[17] = second compound 3.16 µM, first compound 10 µM
[18] = second compound 10 µM, first compound 0.0316 µM
[19] = second compound 10 µM, first compound 0.1 µM
[20] = second compound 10 µM, first compound 0.316 µM
[21] = second compound 10 µM, first compound 1 µM
[22] = second compound 10 µM, first compound 3.16 µM
[23] = second compound 10 µM, first compound 10 µM
[24] = second compound 31.6 µM, first compound 0.0316 µM
[25] = second compound 31.6 µM, first compound 0.1 µM
[26] = second compound 31.6 µM, first compound 0.316 µM
[27] = second compound 31.6 µM, first compound 1 µM
[28] = second compound 31.6 µM, first compound 3.16 µM
[29] = second compound 31.6 µM, first compound 10 µM
[30] = second compound 100 µM, first compound 0.0316 µM
[31] = second compound 100 µM, first compound 0.1 µM
[32] = second compound 100 µM, first compound 0.316 µM
[33] = second compound 100 µM, first compound 1 µM
[34] = second compound 100 µM, first compound 3.16 µM
[35] = second compound 100 µM, first compound 10 µM

[2H]c1nc(C)nc([2H])c1-c1cc(NC[C@@H](C)c2cccc3c(C(=O)NC)ccnc23)ncn1 + Cn1nnc2c(C(N)=O)ncn2c1=O
> 10000 nM: IC50 [1] | IC50 [2] | IC50 [3] | IC50 [4] | IC50 [5]
inactive: viability, T/C [6] 91.1% | viability, T/C [7] 101% | viability, T/C [8] 95.1% | viability, T/C [9] 96.7% | viability, T/C [10] 98.9% | viability, T/C [11] 78.5% | viability, T/C [12] 104% | viability, T/C [13] 103% | viability, T/C [14] 103% | viability, T/C [15] 98.9% | viability, T/C [16] 96.8% | viability, T/C [17] 84.8% | viability, T/C [18] 101% | viability, T/C [19] 103% | viability, T/C [20] 92.4% | viability, T/C [21] 88.3% | viability, T/C [22] 87.2% | viability, T/C [23] 81.1% | viability, T/C [24] 110% | viability, T/C [25] 99.3% | viability, T/C [26] 100% | viability, T/C [27] 98.7% | viability, T/C [28] 98.3% | viability, T/C [29] 80.3% | viability, T/C [30] 93.1% | viability, T/C [31] 90.2% | viability, T/C [32] 86% | viability, T/C [33] 77.8% | viability, T/C [34] 73.8% | viability, T/C [35] 64.7%

Cn1ncnc1[C@H]1c2n[nH]c(=O)c3cc(F)cc(c23)N[C@@H]1c1ccc(F)cc1
inactive: viability, T/C (compound 0.00949 µM) 39.3% and 40% and 67.2% | viability, T/C (compound 0.03 µM) 31.9% and 32.7% and 44.5% | viability, T/C (compound 0.0949 µM) 21.2% and 24.7% and 35.2% | viability, T/C (compound 0.3 µM) 24.9% and 26.4% and 34.4% | viability, T/C (compound 0.949 µM) 25.2% and 26.3% and 30.4% | viability, T/C (compound 3 µM) 21.1% and 25.1% and 26.3%
< 9.49 nM and 23.5 nM: IC50 (curve of compound)

COc1cc(C)[nH]c(=O)c1CN1CCc2c(Cl)cc(C(OC)C3COC3)c(Cl)c2C1=O (stereo not drawn) + Cn1nnc2c(C(N)=O)ncn2c1=O
> 10000 nM: IC50 [1] | IC50 [2] | IC50 [3] | IC50 [4] | IC50 [5]
inactive: viability, T/C [6] 92.5% | viability, T/C [7] 90.5% | viability, T/C [8] 91.2% | viability, T/C [9] 86.1% | viability, T/C [10] 77.5% | viability, T/C [11] 76.7% | viability, T/C [12] 98.1% | viability, T/C [13] 90.2% | viability, T/C [14] 90.3% | viability, T/C [15] 94.4% | viability, T/C [16] 85% | viability, T/C [17] 82.3% | viability, T/C [18] 98.2% | viability, T/C [19] 93.5% | viability, T/C [20] 96.1% | viability, T/C [21] 83.8% | viability, T/C [22] 87.8% | viability, T/C [23] 81.4% | viability, T/C [24] 97.1% | viability, T/C [25] 89.8% | viability, T/C [26] 99.3% | viability, T/C [27] 100% | viability, T/C [28] 88.5% | viability, T/C [29] 80.2% | viability, T/C [30] 88.7% | viability, T/C [31] 96.3% | viability, T/C [32] 84.2% | viability, T/C [33] 80.7% | viability, T/C [34] 77.3% | viability, T/C [35] 76.1%

COc1ccc([C@@H](O)c2cc(-c3ncnc4cc(N5CCOCC5)ccc34)c(F)cc2Cl)nn1 + Cn1nnc2c(C(N)=O)ncn2c1=O
1810 nM: IC50 [3]
inactive: viability, T/C [6] 95.7% | viability, T/C [7] 89.6% | viability, T/C [8] 91.7% | viability, T/C [9] 39.6% | viability, T/C [10] 38.3% | viability, T/C [11] 11% | viability, T/C [12] 115% | viability, T/C [13] 97.8% | viability, T/C [14] 82.5% | viability, T/C [15] 60.7% | viability, T/C [16] 32.3% | viability, T/C [18] 97.1% | viability, T/C [19] 103% | viability, T/C [20] 85.2% | viability, T/C [21] 65.1% | viability, T/C [22] 36.2% | viability, T/C [23] 10.9% | viability, T/C [24] 101% | viability, T/C [25] 96.2% | viability, T/C [26] 93.4% | viability, T/C [27] 55.6% | viability, T/C [28] 30.3% | viability, T/C [29] 10.2% | viability, T/C [30] 83.8% | viability, T/C [31] 82.3% | viability, T/C [32] 66.8% | viability, T/C [33] 42.9% | viability, T/C [34] 28.6% | viability, T/C [35] 9.15%
808 nM: IC50 [5]
1520 nM: IC50 [2]
active: viability, T/C [17] 10%
1410 nM: IC50 [4]
799 nM: IC50 [1]

O=C(c1cc(Cc2n[nH]c(=O)c3ccccc23)ccc1F)N1CCN(C(=O)C2CC2)CC1 + COc1cc2c(cc1O)CCNC21CSC2c3c(OC(C)=O)c(C)c4c(c3C(COC1=O)N1C(O)C3Cc5cc(C)c(OC)c(O)c5C(C21)N3C)OCO4
1360 nM: IC50 (curve of first compound, second compound 30 pM)
206 nM: IC50 (curve of first compound, second compound 94.9 pM)
< 94.9 nM: IC50 (curve of first compound, second compound 0.0003 µM) | IC50 (curve of first compound, second compound 0.000949 µM) | IC50 (curve of first compound, second compound 0.003 µM)
active: viability, T/C (second compound 0.0003 µM, first compound 30 µM) 3.66% | viability, T/C (second compound 0.000949 µM, first compound 0.0949 µM) 4.23% | viability, T/C (second compound 0.000949 µM, first compound 0.3 µM) 5.88% | viability, T/C (second compound 0.000949 µM, first compound 0.949 µM) 3.15% | viability, T/C (second compound 0.000949 µM, first compound 3 µM) 1.8% | viability, T/C (second compound 0.000949 µM, first compound 9.49 µM) 1.43% | viability, T/C (second compound 0.000949 µM, first compound 30 µM) 0.13% | viability, T/C (second compound 0.003 µM, first compound 0.0949 µM) 0.19% | viability, T/C (second compound 0.003 µM, first compound 0.3 µM) 0.19% | viability, T/C (second compound 0.003 µM, first compound 0.949 µM) 0.12% | viability, T/C (second compound 0.003 µM, first compound 3 µM) 0.13% | viability, T/C (second compound 0.003 µM, first compound 9.49 µM) 0.15% | viability, T/C (second compound 0.003 µM, first compound 30 µM) 0.21%
inactive: viability, T/C (second compound 30 pM, first compound 0.0949 µM) 87.3% | viability, T/C (second compound 30 pM, first compound 0.3 µM) 70.1% | viability, T/C (second compound 30 pM, first compound 0.949 µM) 57.6% | viability, T/C (second compound 30 pM, first compound 3 µM) 36.5% | viability, T/C (second compound 30 pM, first compound 9.49 µM) 25.3% | viability, T/C (second compound 30 pM, first compound 30 µM) 11.8% | viability, T/C (second compound 94.9 pM, first compound 0.0949 µM) 54.3% | viability, T/C (second compound 94.9 pM, first compound 0.3 µM) 53.6% | viability, T/C (second compound 94.9 pM, first compound 0.949 µM) 31.2% | viability, T/C (second compound 94.9 pM, first compound 3 µM) 29.9% | viability, T/C (second compound 94.9 pM, first compound 9.49 µM) 28.6% | viability, T/C (second compound 94.9 pM, first compound 30 µM) 11.7% | viability, T/C (second compound 0.0003 µM, first compound 0.0949 µM) 28% | viability, T/C (second compound 0.0003 µM, first compound 0.3 µM) 35.6% | viability, T/C (second compound 0.0003 µM, first compound 0.949 µM) 32.8% | viability, T/C (second compound 0.0003 µM, first compound 3 µM) 31.1% | viability, T/C (second compound 0.0003 µM, first compound 9.49 µM) 24.2%

COc1cc2c(cc1O)CCNC21CSC2c3c(OC(C)=O)c(C)c4c(c3C(COC1=O)N1C(O)C3Cc5cc(C)c(OC)c(O)c5C(C21)N3C)OCO4 (stereo not drawn)
3.63% [middle of 10 runs]: viability, T/C (compound 0.000949 µM)
active: viability, T/C (compound 0.003 µM) 0.11% [middle of 6 runs]
0.156 nM [middle of 10 runs]: IC50 (compound alone, run of 12/16/2019)
inactive: viability, T/C (compound 30 pM) 89.8% [middle of 10 runs] | viability, T/C (compound 94.9 pM) 64.2% [middle of 10 runs] | viability, T/C (compound 0.0003 µM) 34.4% [middle of 10 runs]

CC1COCCN1c1cc(-c2ccnn2C)c2ccnc(-c3ccn[nH]3)c2n1 (stereo not drawn) + Cn1nnc2c(C(N)=O)ncn2c1=O
70.1 nM: IC50 [2]
< 31.6 nM: IC50 [5]
inactive: viability, T/C [6] 71.4% | viability, T/C [7] 38.7% | viability, T/C [8] 15.1% | viability, T/C [12] 76.6% | viability, T/C [13] 38.2% | viability, T/C [14] 11.3% | viability, T/C [18] 73.8% | viability, T/C [19] 37.9% | viability, T/C [20] 12.3% | viability, T/C [24] 55.4% | viability, T/C [25] 23.2% | viability, T/C [30] 33.5% | viability, T/C [31] 12.6%
67.3 nM: IC50 [1]
67.8 nM: IC50 [3]
active: viability, T/C [9] 6.03% | viability, T/C [10] 3.67% | viability, T/C [11] 3.45% | viability, T/C [15] 5.45% | viability, T/C [16] 3.38% | viability, T/C [17] 2.94% | viability, T/C [21] 5.29% | viability, T/C [22] 2.98% | viability, T/C [23] 3.83% | viability, T/C [26] 9.1% | viability, T/C [27] 4.96% | viability, T/C [28] 3.48% | viability, T/C [29] 3.25% | viability, T/C [32] 6.3% | viability, T/C [33] 3.95% | viability, T/C [34] 3.48% | viability, T/C [35] 2.85%
38.2 nM: IC50 [4]
